Reference: PMC7461116, “Synthesis, Anticonvulsant and Antinociceptive Activity of New Hybrid Compounds: Derivatives of 3-(3-Methylthiophen-2-yl)-pyrrolidine-2,5-dione” (International Journal of Molecular Sciences, 2020)
Where a name gives a salt, the structure may show the parent alone.

Assays:
[1] = test system: PTZ-induced clonic seizures; design: method as in PMID 25933955; settings: cited from earlier work
[2] = test system: motor impairment on rotarod; settings: cited from earlier work
[3] = test system: maximal electroshock seizures; settings: cited from earlier work
[4] = test system: latency time to pain reaction; design: method as in PMID 25933955; settings: cited from earlier work
[5] = test system: 6 Hz psychomotor seizures; experiment: 6 Hz (32 mA) psychomotor seizure test; type: in vivo, mice; settings: 32 mA
From the text: Psychomotor seizures were induced via corneal stimulation (6 Hz, 32 mA, 0.2 ms rectangular pulse width, 3 s duration) using a constant-current device (ECT Unit 57800, Ugo Basile, Italy). A drop of 1% solution of lidocaine hydrochloride was applied to the mouse corneas before stimulation to provide local anesthesia and ensure optimal current conductivity. After the electrical stimulation, mice were gently released and observed for the presence or absence of seizure activity, being characterized by immobility associated with rearing, forelimb clonus, twitching of the vibrissae, stun, and Straub-tail. Lack of the above symptoms or their cessation within 10 s from the stimulation was considered as absence of seizure activity. The initial anticonvulsant screening of the tested compounds was performed at a fixed dose of 100 mg/kg (four mice per group). Then ED50 was calculated for active compounds as described above.

TRPV1 receptor = target: T1, TRPV1 receptor (Homo sapiens, UniProt Q8NER1); experiment: TRPV1 (VR1) (h) antagonist effect, Cerep; type: biochemical; settings: 100 µM
T1 construct: Cerep Laboratories (Poitiers, France)
Procedure: (§1) Binding and functional studies were performed commercially in Cerep Laboratories (Poitiers, France) using testing procedures described elsewhere (Na^+ channel-site 2 [27], L-type Ca^2+ channel, dihydropyridine site, TRPV1 (VR1) (h) (antagonist effect), GABA transporter (GAT)). All experiments were performed in duplicate.

[6] = test system: maximal electroshock seizures; experiment: Maximal electroshock seizure (MES) test; type: in vivo, mice; settings: Mus musculus; mice, ip, 100 mg/kg, 0.5 h; read-out: MES: number of mice protected/number of mice tested (converted)
Procedure: The MES test was performed as previously described. Stimuli (25 mA, 0.2 s, 50 Hz) were generated by a constant current stimulator (Rodent shocker, Type 221, Hugo Sachs Elektronik, Germany) and delivered with the use of auricular electrodes. During the stimulation, each mouse was restrained manually, and immediately after the stimulation gently released for observation. The endpoint was the tonic extension of the hind limbs. Mice not displaying hindlimb tonic extension were considered to be protected from seizure. The initial anticonvulsant screening of the tested compounds was performed at a fixed dose of 100 mg/kg (four mice per group). […] To evaluate the ED50, at least three groups of animals were injected with various doses of tested compounds. Each group consisted of six animals.

[7] = test system: acetic acid-induced writhing behavior; experiment: Acetic acid-induced writhing test; type: in vivo; settings: mice, ip
Procedure: Mice were injected with the test compound or vehicle by intraperitoneally route (ip), and 30 min later, 0.9 % acetic acid solution was injected ip and the animals were placed into the glass beakers. The writhing response (lengthwise stretching of the torso, concave arching of the back, and extension of the hind limbs) was recorded for 30 min. The analgesic effect of the tested substances was determined by a decrease in the number of writhes observed and the results were expressed as percent inhibition of writhing behavior (as index of analgesia), and was calculated using the following formula: %Inhibition=(NA−NB)/NA×100, where NA—number of writhes in vehicle group, NB—number of writhes in drug-treated group.

[8] = test system: Voltage-Sensitive Na+ Channel (site 2); experiment: Radioligand binding, [3H]BTX, Cerep; settings: 100 µM, rat cerebral cortex synaptoneurosomal preparations
Procedure: as §1

[9] = test system: Voltage-Sensitive Ca2+ Channel L-type (dihydropyridine site); experiment: Radioligand binding, [3H]nitrendipine, Cerep; settings: 100 µM, rat cerebral cortex synaptoneurosomal preparations
Procedure: as §1

[10] = Rotarod test (acute neurotoxicity, NT); settings: mouse, in vivo, mice ip
[11] = test system: PTZ-induced clonic seizures; experiment: Subcutaneous pentylenetetrazole (scPTZ) seizure test; type: in vivo; settings: mice, 100 mg/kg
Procedure: Clonic convulsions were induced by the subcutaneous (sc) administration of PTZ at a dose of 100 mg/kg. After PTZ injection, the mice were placed separately and observed during the next 30 min for the occurrence of clonic seizures. Clonic seizures were defined as clonus of the whole body lasting more than 3 s, with an accompanying loss of righting reflex. The latency to first clonus, the number of seizure episodes, and mortality rate were noted and compared with vehicle-treated and drug-treated groups. The absence of clonic convulsions within the observed time period was interpreted as the compound’s ability to protect against PTZ-induced seizures.

[12] = test system: motor impairment on rotarod; experiment: Rotarod test (acute neurotoxicity, NT); type: in vivo; settings: ip, 100 mg/kg, 0.5 h
Procedure: In this test mice were trained to balance on an accelerating rotarod that rotated at 10 rotations per minute (Rotarod apparatus, May Commat RR0711, Turkey; rod diameter: 3 cm). During the training session, the animals were placed on a rotating rod for 3 min with an unlimited number of trials. Proper experiment was conducted 24 h after the training trial. On the test day, trained mice were intraperitoneally pretreated with the test compound at a dose of 100 mg/kg and just before the MES test were tested on the rotarod. Neurotoxicity was indicated by the inability of the animal to maintain equilibration on the rod for 1 min. […] Each group consisted of six animals.

[13] = Hepatotoxicity, PrestoBlue viability assay; type: cell-based, human; settings: human, Hep G2 cells, 1–100 μM, read-out: Hep G2 cell viability
Procedure: Hepatotoxicity of tested compounds was assessed in PrestoBlue (Thermo Fisher Scientific, Waltham, MA, USA) Experiments on microplate reader (SpectraMax® iD3, Molecular Devices, San Jose, CA, USA) using human hepatocellular carcinoma cells (Hep G2) ATCC® […]. The cells were cultured in standard conditions (37 °C, 5% CO2), in Dulbecco’s Modified Eagle’s Medium-high glucose, (DMEM, Gibco, Thermo Fisher Scientific, Waltham, MA, USA) supplemented with 10% fetal bovine serum (Thermo Fisher Scientific, Waltham, MA, USA), with added 100 IU/mL penicillin (Sigma Aldrich, Steinheim, Germany) and 100 µg/mL streptomycin (Sigma Aldrich). PrestoBlue reagent is a resazurin-based solution that functions as a cell viability indicator. Metabolically active cells are capable of reducing the PrestoBlue reagent, with the colorimetric changes used as an indicator to quantify the viability of cells in culture. This change can be determined by measuring the fluorescence. After 24 h of incubation with the compounds PrestoBlue reagent was added to wells of a microplate. After 20 min of incubation at 37 °C, the fluorescence intensity (EX 530; EM 580 nm) was measured in a plate reader. Viability values were calculated as a percentage of live cells with respect to the control sample (DMSO). The negative control was medium without cells. Astemizole was used as a reference substance.

GABA Transporter (GAT) = experiment: Radioligand binding, [3H]GABA, Cerep; settings: 100 µM, rat cerebral cortex synaptoneurosomal preparations
Procedure: as §1

[14] = test system: latency time to pain reaction; experiment: Hot plate test; type: in vivo; settings: mice, ip, 30 mg/kg
Procedure: The hot plate test was carried out based on the Eddy and Leimbach (1953) method. In this test, the apparatus was equipped with an electrically heated surface with a temperature controller that maintains surface temperature to a set point. Herein, the temperature was set at 55 °C. The animals were treated ip either with the test compounds, or vehicle 30 min before placing the animal on a hot plate apparatus. Latency time to pain reaction, i.e., the time until the animal licked its back paws or jumped was recorded by means of the stopwatch.

T1 sequence (Q8NER1 whole entry): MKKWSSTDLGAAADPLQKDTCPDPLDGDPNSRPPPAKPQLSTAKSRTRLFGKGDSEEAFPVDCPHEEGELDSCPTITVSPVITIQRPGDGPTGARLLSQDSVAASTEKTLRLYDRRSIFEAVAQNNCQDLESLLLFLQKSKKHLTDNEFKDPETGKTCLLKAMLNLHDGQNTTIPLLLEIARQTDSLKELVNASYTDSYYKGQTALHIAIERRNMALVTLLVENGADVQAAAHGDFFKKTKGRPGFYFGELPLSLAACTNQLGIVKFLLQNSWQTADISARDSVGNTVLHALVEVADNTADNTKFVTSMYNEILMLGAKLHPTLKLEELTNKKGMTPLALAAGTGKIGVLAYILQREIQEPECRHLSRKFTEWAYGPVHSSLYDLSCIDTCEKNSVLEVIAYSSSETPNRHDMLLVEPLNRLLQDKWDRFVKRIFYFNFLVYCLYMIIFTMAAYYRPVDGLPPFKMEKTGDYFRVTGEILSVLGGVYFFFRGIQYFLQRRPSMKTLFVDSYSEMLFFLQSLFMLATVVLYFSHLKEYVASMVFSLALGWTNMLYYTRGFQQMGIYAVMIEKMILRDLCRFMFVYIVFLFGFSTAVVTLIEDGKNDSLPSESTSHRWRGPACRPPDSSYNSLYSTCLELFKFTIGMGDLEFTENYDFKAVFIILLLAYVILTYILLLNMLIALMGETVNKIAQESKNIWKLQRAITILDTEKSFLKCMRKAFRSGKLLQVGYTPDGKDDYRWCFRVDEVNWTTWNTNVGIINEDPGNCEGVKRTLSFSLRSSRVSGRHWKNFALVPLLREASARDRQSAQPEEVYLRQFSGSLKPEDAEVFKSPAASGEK

Cc1ccsc1C(=CCCN1CCC[C@@H](C(=O)O)C1)c1sccc1C [tiagabine]
scPTZ: activity in words [1]: active
Rotarod: motor impairment in words [2]: significant motor impairment
MES: protection in words [3]: did not show protection
Hot plate: dose at which analgesic activity was observed [4]: 8 mg/kg

Cc1ccsc1C1CC(=O)N(CCN2CCOCC2)C1=O (racemic) [Compound 3, (R,S)-3-(3-Methylthiophen-2-yl)-1-(2-morpholinoethyl)pyrrolidine-2,5-dione hydrochloride]
ED50 ([5]; Mus musculus, mice ip, 95% confidence limit in brackets): 74.3 mg/kg
responders at 100 mg/kg ([5]; Mus musculus, mice, ip, 100 mg/kg, 0.5 h, read-out: 6 Hz: number of mice protected/number of mice tested (converted)): 100%
6 Hz: tested animals protected ([5]; mice, ip, 100 mg/kg, 0.5 h): 100%
TRPV1 antagonist effect (TRPV1 receptor): 14.8%
responders at 100 mg/kg [6]: 25%
Reduction of number of writhes (inhibition of writhing behavior) ([7]; 30 mg/kg): 34%
Reduction of number of writhes (inhibition of writhing behavior) ([7]; 45 mg/kg): 39%
% Inhibition of Control Specific Binding, Voltage-Sensitive Na+ Channel (site 2) [8]: 15.6%
% Inhibition of Control Specific Binding, Voltage-Sensitive Ca2+ Channel L-typ [9]: −1.1%
TD50 at 0.5 h [10]: > 200 mg/kg
scPTZ: tested animals protected [11]: 50%
scPTZ: latency time to first seizure episode ([11]; control 436.8 ± 91.94 s): 1435 ± 234.9 s
scPTZ: prolongation of latency time to first seizure episode ([11]; vs control, p < 0.001): 228%
NT: number of mice with motor impairment/number of mice tested [12]: 0/4
viability at 24 h [13]: > 94%
% Inhibition of Control Specific Binding, GABA Transporter (GAT) (GABA Transporter (GAT)): −1.1%
Hot plate: prolongation of latency time to pain reaction [14]: inactive
